Values quoted from earlier work as cited in US20160317442A1, “Nanosomal preparation of the complex formed by quercetin (or another flavonol, flavone or a derivative thereof) and 2-hydroxypropyl-beta-cyclodextrin for intravenous use in cerebral pathological conditions” (priority 2013, published 2016).

Conditions: aqueous preparations

O=c1c(O)c(-c2ccc(O)c(O)c2)oc2cc(O)cc(O)c12 [quercetin]
detection of quercetin in the brain: not detected
